Measured values published in US11154563B2, “Immunoproteasome inhibitors” (Principia Biopharma Inc., priority 2017, dated 2021).

Assays:
[1] = target: immunoproteasome LMP7/B5i subunit (Homo sapiens, UniProt P20618+P28062); test: Caliper-based proteasome enzymatic activity assay, LMP7; type: biochemical; details: human recombinant immunoproteasome 0.3 nM, FAM-peptide substrate 1 μM, 3 h at rt
Method: (§1) A Caliper-based proteasome assay (Caliper Life Sciences, Hopkinton, Mass.) was used to measure inhibition of the immunoproteasome LMP7/B5i subunit, the immunoproteasome LPM2/β1i subunit, and the constitutive proteasome β5c unit for a compound of Formula (I). For LMP7 and β5c, serial dilutions of test compounds were incubated with either human recombinant immunoprotcasome or constitutive proteasome (0.3 nM enzyme) and a carboxyfluorescein (FAM)-labeled peptide substrate FAM-TYETFKSIMKKSPF-NH2 (1 μM) at it for 3 h. The reaction was then terminated with a buffer containing the known proteasome inhibitor carfilzomib at a concentration of 5 uM. For LMP2, serial dilutions of test compounds were incubated with human recombinant immunoproteasome proteasome (0.3 nM enzyme) and a carboxyfluorescein (FAM)-labeled peptide substrate FAM-[…]-NH2 (1 μM) at rt for 2 h. The reaction was then terminated with a buffer containing the known proteasome inhibitor ixazomib at a concentration of 6.7 uM. The reaction buffer was 20 mM Hepes pH 7.4, 0.01% bovine serum albumin, 0.015% SDS, 0.5 mM EDTA, 1%0/DMSO. The peptide cleavage reaction product was quantified on a Caliper LabChip 3000. Percent inhibition was calculated for each compound dilution and the concentration that produced 50% inhibition was calculated. This value is presented as the IC50.

[2] = target: constitutive proteasome β5c unit (Homo sapiens, UniProt P20618+P28074); test: Caliper-based proteasome enzymatic activity assay, β5c; type: biochemical; details: human recombinant constitutive proteasome 0.3 nM, FAM-peptide substrate 1 μM, 3 h at rt; read-out: β5c subunit IC50
Method: as §1

SMILES | IC50 [1] [µM] | IC50 [2] [µM]
C=CC(=O)N1CCOC[C@@H]1COC(=O)N[C@@H](Cc1coc2ccccc12)B(O)O [Example 93, ((R)-1-(((((R)-4-acryloylmorpholin-3-yl)methoxy)carbonyl)amino)-2-(benzofuran-3-yl)ethyl)boronic acid] | 0.003 | 0.165
CC(C)(C=C(C#N)C(=O)N1CCOC[C@@H]1COC(=O)N[C@@H](Cc1ccccc1)B(O)O)N1CCC(F)(F)C1 [Example 94, ((R)-1-(((((R)-4-(2-cyano-4-(3,3-difluoropyrrolidin-1-yl)-4-methylpent-2-enoyl)morpholin-3-yl)methoxy)carbonyl)amino)-2-phenylethyl)boronic acid] | 0.002 | 1.76
C=CC(=O)N1C[C@@H]2C[C@@H]2[C@@H]1COC(=O)N[C@@H](Cc1ccc(C)cc1)B(O)O [Example 95, ((R)-1-(((((1S,2R,5R)-3-acryloyl-3-azabicyclo[3.1.0]hexan-2-yl)methoxy)carbonyl)amino)-2-(p-tolyl)ethyl)boronic acid] | 0.037 | 3.39
COc1cccc(C[C@H](NC(=O)OC[C@H]2CCCCN2C(=O)C(C#N)=CC(C)(C)N2CCC(F)(F)C2)B(O)O)c1 [Example 96] | 0.0027 | > 5
CN(CC(F)(F)F)C(C)(C)C=C(C#N)C(=O)N1CCCC[C@@H]1COC(=O)N[C@@H](Cc1ccccc1)B(O)O [Example 97, ((R)-1-(((((R)-1-(2-cyano-4-methyl-4-(methyl(2,2,2-trifluoroethyl)amino)pent-2-enoyl)piperidin-2-yl)methoxy)carbonyl)amino)-2-phenylethyl)boronic acid] | 0.005 | 3.97
CC(C)(C=C(C#N)C(=O)N1CCOC[C@@H]1COC(=O)N[C@@H](CCc1ccccc1)B(O)O)N1CCC(F)(F)C1 [Example 98, ((R)-1-(((((R)-4-(2-cyano-4-(3,3-difluoropyrrolidin-1-yl)-4-methylpent-2-enoyl)morpholin-3-yl)methoxy)carbonyl)amino)-3-phenylpropyl)boronic acid] | 0.0035 | 3.27
C=CC(=O)N1C[C@@H]2C[C@@H]2[C@@H]1COC(=O)N[C@@H](Cc1ccccc1)B(O)O [Example 99, ((R)-1-(((((1S,2R,5R)-3-acryloyl-3-azabicyclo[3.1.0]hexan-2-yl)methoxy)carbonyl)amino)-2-phenylethyl)boronic acid] | 0.068 | 1.99
C=CC(=O)N1C[C@@H](F)C[C@@H]1COC(=O)N[C@@H](Cc1ccccc1)B(O)O [Example 100, ((R)-1-(((((2R,4S)-1-acryloyl-4-fluoropyrrolidin-2-yl)methoxy)carbonyl)amino)-2-phenylethyl)boronic acid] | 0.021 | 0.53
CC(C)(C=C(C#N)C(=O)N1CCCC[C@@H]1COC(=O)N[C@@H](CCc1ccccc1)B(O)O)N1CCC(F)(F)C1 [Example 101, ((R)-1-(((((R)-1-(2-cyano-4-(3,3-difluoropyrrolidin-1-yl)-4-methylpent-2-enoyl)piperidin-2-yl)methoxy)carbonyl)amino)-3-phenylpropyl)boronic acid] | 0.0017 | > 5
CC(C)(/C=C(/C#N)C(=O)N1CCCC[C@@H]1COC(=O)N[C@@H](Cc1ccccc1)B(O)O)N1CCC(F)(F)C1 [Example 103, ((R)-1-(((((R)-1-((Z)-2-cyano-4-(3,3-difluoropyrrolidin-1-yl)-4-methylpent-2-enoyl)piperidin-2-yl)methoxy)carbonyl)amino)-2-phenylethyl)boronic acid] | 0.0053 | 2.31
CC(C)(C=C(C#N)C(=O)N1C[C@@H]2C[C@@H]2[C@@H]1COC(=O)N[C@@H](CCc1ccccc1)B(O)O)N1CCC(F)(F)C1 [Example 104, ((R)-1-(((((1S,2R,5R)-3-(2-cyano-4-(3,3-difluoropyrrolidin-1-yl)-4-methylpent-2-enoyl)-3-azabicyclo[3.1.0]hexan-2-yl)methoxy)carbonyl)amino)-3-phenylpropyl)boronic acid] | 0.0014 | > 5
CC(C)(C=C(C#N)C(=O)N1CCCC[C@@H]1COC(=O)N[C@@H](Cc1cccc2ccccc12)B(O)O)N1CCC(F)(F)C1 [Example 106, ((R)-1-(((((R)-1-(2-cyano-4-(3,3-difluoropyrrolidin-1-yl)-4-methylpent-2-enoyl)piperidin-2-yl)methoxy)carbonyl)amino)-2-(naphthalen-1-yl)ethyl)boronic acid] | 0.0052 | 2.24
CC(C)(C=C(C#N)C(=O)N1CCCC[C@@H]1COC(=O)N[C@@H](Cc1ccccc1C#N)B(O)O)N1CCC(F)(F)C1 [Example 107, ((R)-1-(((((R)-1-(2-cyano-4-(3,3-difluoropyrrolidin-1-yl)-4-methylpent-2-enoyl)piperidin-2-yl)methoxy)carbonyl)amino)-2-(2-cyanophenyl)ethyl)boronic acid] | 0.111 | > 5
CC(C)(C=C(C#N)C(=O)N1C[C@@H]2C[C@@H]2[C@@H]1COC(=O)N[C@@H](Cc1ccc(F)cc1)B(O)O)N1CCC(F)(F)C1 [Example 108] | 0.0009 | 0.83
C=CC(=O)N1C[C@@H]2C[C@@H]2[C@@H]1COC(=O)N[C@@H](Cc1ccc(F)cc1)B(O)O [Example 109, ((R)-1-(((((1S,2R,5R)-3-acryloyl-3-azabicyclo[3.1.0]hexan-2-yl)methoxy)carbonyl)amino)-2-(4-fluorophenyl)ethyl)boronic acid] | 0.0064 | 3.32
CC(C)(C=C(C#N)C(=O)N1CCCC[C@@H]1COC(=O)N[C@@H](Cc1ccccc1C(F)(F)F)B(O)O)N1CCC(F)(F)C1 [Example 110, ((R)-1-(((((R)-1-(2-cyano-4-(3,3-difluoropyrrolidin-1-yl)-4-methylpent-2-enoyl)piperidin-2-yl)methoxy)carbonyl)amino)-2-(2-(trifluoromethyl)phenyl)ethyl)boronic acid] | 0.022 | > 5
C=CC(=O)N1CCS(=O)(=O)C[C@@H]1COC(=O)N[C@@H](Cc1coc2ccccc12)B(O)O [Example 111] | 0.0042 | 0.09
C=CC(=O)N1CCC(F)(F)C[C@@H]1COC(=O)N[C@@H](Cc1coc2ccccc12)B(O)O [Example 112, ((R)-1-(((((R)-1-acryloyl-4,4-difluoropiperidin-2-yl)methoxy)carbonyl)amino)-2-(benzofuran-3-yl)ethyl)boronic acid] | 0.0025 | 0.095
CC(C)(C=C(C#N)C(=O)N1CCCC[C@@H]1COC(=O)N[C@@H](Cc1ccc(F)cc1F)B(O)O)N1CCC(F)(F)C1 [Example 113, ((R)-1-(((((R)-1-(2-cyano-4-(3,3-difluoropyrrolidin-1-yl)-4-methylpent-2-enoyl)piperidin-2-yl)methoxy)carbonyl)amino)-2-(2,4-difluorophenyl)ethyl)boronic acid] | > 5 | > 5
CC(C)(C=C(C#N)C(=O)N1C[C@@H]2C[C@@H]2[C@@H]1COC(=O)N[C@@H](Cc1ccc(C(F)(F)F)cc1)B(O)O)N1CCOCC1 [Example 114] | 0.0023 | 2.54
C=CC(=O)N1C[C@@H]2C[C@@H]2[C@@H]1COC(=O)N[C@@H](Cc1ccc(C(F)(F)F)cc1)B(O)O [Example 115, ((R)-1-(((((1S,2R,5R)-3-acryloyl-3-azabicyclo[3.1.0]hexan-2-yl)methoxy)carbonyl)amino)-2-(4-(trifluoromethyl)phenyl)ethyl)boronic acid] | 0.0026 | 2.93
Cc1ccc(C[C@H](NC(=O)OC[C@H]2[C@H]3C[C@H]3CN2C(=O)C(C#N)=CC(C)(C)N2CCC(F)(F)C2)B(O)O)cc1 [Example 116, ((R)-1-(((((1S,2R,5R)-3-(2-cyano-4-(3,3-difluoropyrrolidin-1-yl)-4-methylpent-2-enoyl)-3-azabicyclo[3.1.0]hexan-2-yl)methoxy)carbonyl)amino)-2-(p-tolyl)ethyl)boronic acid] | 0.062 | > 5
CC(C)(C=C(C#N)C(=O)N1CCC[C@]1(C)COC(=O)N[C@@H](Cc1coc2ccccc12)B(O)O)N1CCC(F)(F)C1 [Example 117, ((R)-2-(benzofuran-3-yl)-1-(((((R)-1-(2-cyano-4-(3,3-difluoropyrrolidin-1-yl)-4-methylpent-2-enoyl)-2-methylpyrrolidin-2-yl)methoxy)carbonyl)amino)ethyl)boronic acid] | 0.0008 | 0.64
CC(C)(C)C[C@H](NC(=O)OC[C@@]1(C)CCCN1C(=O)C(C#N)=CC(C)(C)N1CCC(F)(F)C1)B(O)O [Example 118, ((R)-1-(((((R)-1-(2-cyano-4-(3,3-difluoropyrrolidin-1-yl)-4-methylpent-2-enoyl)-2-methylpyrrolidin-2-yl)methoxy)carbonyl)amino)-3,3-dimethylbutyl)boronic acid] | 0.0015 | 0.57
CC1(C=C(C#N)C(=O)N2C[C@@H]3C[C@@H]3[C@@H]2COC(=O)N[C@@H](Cc2ccc(F)cc2)B(O)O)CCOCC1 [Example 119, ((R)-1-(((((1S,2R,5R)-3-(2-cyano-3-(4-methyltetrahydro-2H-pyran-4-yl)acryloyl)-3-azabicyclo[3.1.0]hexan-2-yl)methoxy)carbonyl)amino)-2-(4-fluorophenyl)ethyl)boronic acid] | > 5 | > 5
